The numbers were not newly measured in PubChem BioAssay AID1259409 (Chemical Carcinogenesis Research Information System (CCRIS), 2018), which cites them from elsewhere.

This series has as its system rodent chemically induced tumor inhibition, incidence and multiplicity. Briefly: CCRIS tumor inhibitor studies. The conditions noted are these: Dose [Inhibitor]: 0, Route [Inhibitor]: ORAL, Species: RAT, Strain/Sex: F344/MALE.

For `COc1cc(/C=C/C(=O)O[C@H]2CC[C@]34C[C@]35CC[C@]3(C)[C@@H]([C@H](C)CCC=C(C)C)CC[C@@]3(C)[C@@H]5CC[C@H]4C2(C)C)ccc1O`, the “tumour outcome (control, treated, inhibition, significance)” value is, setting by setting: (Carcinogen: 2,2'-DIHYDROXY-DI-N-PROPYLNITROSAMINE, 53609-64-6, N-ETHYL-N-HYDROXYETHYLNITROSAMINE, 13147-25-6, 3,2'-DIMETHYL-4-AMINO-, Carcinogen: 2,2'-DIHYDROXY-DI-N-PROPYLNITROSAMINE, 53609-64-6, N-ETHYL-N-HYDROXYETHYLNITROSAMINE, 13147-25-6, 3,2'-DIMETHYL-4-AMINO-, 1% IN DIET FOR 32 WK BEGINNING 1 WK POST CARCINOGEN TREATMENT (STUDY DURATION: 36 WK), Target Tissue: Type of Lesion: LUNG: ADENOMA, Dose [Carcinogen]: 1000 MG/KG BW DHPN TWICE 1500 MG/KG BW EHEN TWICE, 75 MG/KG BW 3 TIMES ADMINISTERED OVER FIRST 3 WK, Promoter: NONE USED) 7/14 (50%), 11/13 (85%), -70%, not significant; (Carcinogen: 2,2'-DIHYDROXY-DI-N-PROPYLNITROSAMINE, 53609-64-6, N-ETHYL-N-HYDROXYETHYLNITROSAMINE, 13147-25-6, 3,2'-DIMETHYL-4-AMINO-, Carcinogen: 2,2'-DIHYDROXY-DI-N-PROPYLNITROSAMINE, 53609-64-6, N-ETHYL-N-HYDROXYETHYLNITROSAMINE, 13147-25-6, 3,2'-DIMETHYL-4-AMINO-, 1% IN DIET FOR 32 WK BEGINNING 1 WK POST CARCINOGEN TREATMENT (STUDY DURATION: 36 WK), Target Tissue: Type of Lesion: THYROID GLAND: ADENOMA, Dose [Carcinogen]: 1000 MG/KG BW DHPN TWICE, 1500 MG/KG BW EHEN TWICE 75 MG/KG BW 3 TIMES ADMINISTERED OVER FIRST 3 WK, Promoter: NONE USED) 3/14 (21%), 2/13 (15%), 29%, not significant; (Carcinogen: 2,2'-DIHYDROXY-DI-N-PROPYLNITROSAMINE, 53609-64-6, N-ETHYL-N-HYDROXYETHYLNITROSAMINE, 13147-25-6, 3,2'-DIMETHYL-4-AMINO-, Carcinogen: 2,2'-DIHYDROXY-DI-N-PROPYLNITROSAMINE, 53609-64-6, N-ETHYL-N-HYDROXYETHYLNITROSAMINE, 13147-25-6, 3,2'-DIMETHYL-4-AMINO-, 1% IN DIET FOR 32 WK BEGINNING 1 WK POST CARCINOGEN TREATMENT (STUDY DURATION: 36 WK), Target Tissue: Type of Lesion: THYROID GLAND: CARCINOMA, Dose [Carcinogen]: 1000 MG/KG BW DHPN TWICE, 1500 MG/KG BW EHEN TWICE, 75 MG/KG BW 3 TIMES ADMINISTERED OVER FIRST 3 WK, Promoter: NONE USED) 3/14 (21%), 1/13 (8%), 62%, not significant; (Carcinogen: 2,2'-DIHYDROXY-DI-N-PROPYLNITROSAMINE, 53609-64-6, N-ETHYL-N-HYDROXYETHYLNITROSAMINE, 13147-25-6, 3,2'-DIMETHYL-4-AMINO-, Carcinogen: 2,2'-DIHYDROXY-DI-N-PROPYLNITROSAMINE, 53609-64-6, N-ETHYL-N-HYDROXYETHYLNITROSAMINE, 13147-25-6, 3,2'-DIMETHYL-4-AMINO-, 1% IN DIET FOR 32 WK BEGINNING 1 WK POST CARCINOGEN TREATMENT (STUDY DURATION: 36 WK), Target Tissue: Type of Lesion: URINARY BLADDER: CARCINOMA, Dose [Carcinogen]: 1000 MG/KG BW DHPN TWICE, 1500 MG/KG BW EHEN TWICE, 75 MG/KG BW 3 TIMES ADMINISTERED OVER FIRST 3 WK, Promoter: NONE USED) 1/14 (7%), 2/13 (15%), -114%, not significant; (Carcinogen: 2,2'-DIHYDROXY-DI-N-PROPYLNITROSAMINE, 53609-64-6, N-ETHYL-N-HYDROXYETHYLNITROSAMINE, 13147-25-6, 3,2'-DIMETHYL-4-AMINO-, Carcinogen: 2,2'-DIHYDROXY-DI-N-PROPYLNITROSAMINE, 53609-64-6, N-ETHYL-N-HYDROXYETHYLNITROSAMINE, 13147-25-6, 3,2'-DIMETHYL-4-AMINO-, 1% IN THE DIET FOR 32 WK BEGINNING 1 WK POST CARCINOGEN TREATMENT (STUDY DURATION: 36 WK), Target Tissue: Type of Lesion: LARGE INTESTINE: ADENOMA, Dose [Carcinogen]: 1000 MG/KG BW DHPN TWICE, 1500 MG/KG BW EHEN TWICE, 75 MG/KG BW 3 TIMES ADMINISTERED OVER FIRST 3 WK, Promoter: NONE USED) 7/14 (50%), 5/13 (38%), 24%, not significant; (Carcinogen: 2,2'-HYDROXY-DI-N-PROPYLNITROSAMINE, 53609-64-6, N-ETHYL-N-HYDROXYETHYL- NITROSAMINE, 13147-25-6, 3,2'-DIMETHYL-4-AM, Carcinogen: 2,2'-HYDROXY-DI-N-PROPYLNITROSAMINE, 53609-64-6, N-ETHYL-N-HYDROXYETHYL- NITROSAMINE, 13147-25-6, 3,2'-DIMETHYL-4-AM, 1% IN DIET BEGINNING 1 WK POST LAST CARCINOGEN DOSE AND CONTINUING FOR 32 WK (STUDY DURATION: 36 WK), Target Tissue: Type of Lesion: URINARY BLADDER: CARCINOMA, Dose [Carcinogen]: 1000 MG/KG IP DHPN 2X, 1500 MG/KG GAV EHEN 2X AND 75 MG/KG SC DMAB 3X GIVEN OVER THE INITIAL 3 WK PERIOD AT 3-4 D INTERV, Promoter: NONE USED) 1/14 (7%), 2/13 (15%), -114%, not calculated. The “tumour outcome (control, treated, inhibition, significance)” value runs as follows: (Carcinogen: 3,2'-DIMETHYL-4-AMINOBIPHENYL, 13394-86-0, 2% IN BASAL DIET BEGINNING POST CARCINOGEN TREATMENT AND CONTINUING FOR 40 WK (STUDY DURATION: 60 WK), Target Tissue: Type of Lesion: PANCREAS: ACINAR CELL NODULE, Dose [Carcinogen]: 50 MG/KG 1/2 WK FOR 20 WK TO RATS MAINTAINED ON ETHINYL ESTRADIOL CONTAINING DIET (0.75 PPM) FOR 1 WK CYCLED WITH ETHINY, Promoter: ETHINYL ESTRADIOL, 57-63-6) 4/10 (40%), 5/13 (38%), 5%, not significant; (Carcinogen: 3,2'-DIMETHYL-4-AMINOBIPHENYL, 13394-86-0, 2% IN BASAL DIET BEGINNING POST CARCINOGEN TREATMENT AND CONTINUING FOR 40 WK (STUDY DURATION: 60 WK), Target Tissue: Type of Lesion: PROSTATE: CARCINOMA, Dose [Carcinogen]: 50 MG/KG 1/2 WK FOR 20 WK TO RATS MAINTAINED ON ETHINYL ESTRADIOL CONTAINING DIET (0.75 PPM) FOR 1 WK CYCLED WITH ETHINY, Promoter: ETHINYL ESTRADIOL, 57-63-6) 5/10 (50%), 5/13 (38%), 24%, not significant. Also, the outcome (Carcinogen: 2,2'-DIHYDROXY-DI-N-PROPYLNITROSAMINE, 53609-64-6, N-ETHYL-N-HYDROXYETHYLNITROSAMINE, 13147-25-6, 3,2'-DIMETHYL-4-AMINO-, Carcinogen: 2,2'-DIHYDROXY-DI-N-PROPYLNITROSAMINE, 53609-64-6, N-ETHYL-N-HYDROXYETHYLNITROSAMINE, 13147-25-6, 3,2'-DIMETHYL-4-AMINO-, 1% IN DIET FOR 32 WK BEGINNING 1 WK POST CARCINOGEN TREATMENT (STUDY DURATION: 36 WK), Target Tissue: Type of Lesion: URINARY BLADDER: PAPILLOMA, Dose [Carcinogen]: 1000 MG/KG BW DHPN TWICE, 1500 MG/KG BW EHEN TWICE, 75 MG/KG BW 3 TIMES ADMINISTERED OVER FIRST 3 WK, Promoter: NONE USED) is reported as 0/14 (0%), 3/13 (23%), -100%, not significant.
